# Measured values published in PubChem BioAssay AID1259407 (Chemical Carcinogenesis Research Information System (CCRIS), 2018).
# Active and inactive are the calls of the source. No rule for the calls is given here.
# Test system: CCRIS mutagenicity, Ames/micronucleus/aberration tests
# Experiment: CCRIS mutagenicity studies
# [1] = Test System: AMES SALMONELLA TYPHIMURIUM, Strain/Indicator: TA98, Metabolic Activation: NONE, Method: PREINCUBATION
# [2] = Test System: AMES SALMONELLA TYPHIMURIUM, Strain/Indicator: TA100, Metabolic Activation: NONE, Method: PREINCUBATION
# [3] = Test System: AMES SALMONELLA TYPHIMURIUM, Strain/Indicator: TA1535, Metabolic Activation: NONE, Method: PREINCUBATION
# [4] = Test System: AMES SALMONELLA TYPHIMURIUM, Strain/Indicator: TA100, Metabolic Activation: NONE, Method: STANDARD PLATE
# [5] = Test System: AMES SALMONELLA TYPHIMURIUM, Strain/Indicator: TA98, Metabolic Activation: NONE, Method: STANDARD PLATE
structure (smiles),measurement,setting,value
CC[C@H]1OC(=O)[C@H](C)[C@@H](O[C@H]2C[C@@](C)(OC)[C@@H](O)[C@H](C)O2)[C@H](C)[C@@H](O[C@@H]2O[C@H](C)C[C@H](N(C)C)[C@H]2O)[C@](C)(O)C[C@@H](C)/C(=N\OCOCCOC)[C@H](C)[C@@H](O)[C@]1(C)O,mutagenic call,[1],inactive; negative
same,mutagenic call,"Test System: AMES SALMONELLA TYPHIMURIUM, Strain/Indicator: TA98, Metabolic Activation: RAT, LIVER, S-9, PHENOBARBITAL, Method: PREINCUBATION",inactive; negative
same,mutagenic call,[2],inactive; negative
same,mutagenic call,"Test System: AMES SALMONELLA TYPHIMURIUM, Strain/Indicator: TA100, Metabolic Activation: RAT, LIVER, S-9, PHENOBARBITAL, Method: PREINCUBATION",inactive; negative
same,mutagenic call,[3],inactive; negative
same,mutagenic call,"Test System: AMES SALMONELLA TYPHIMURIUM, Strain/Indicator: TA1535, Metabolic Activation: RAT, LIVER, S-9, PHENOBARBITAL, Method: PREINCUBATION",inactive; negative
same,mutagenic call,"Test System: AMES SALMONELLA TYPHIMURIUM, Strain/Indicator: TA1537, Metabolic Activation: NONE, Method: PREINCUBATION",inactive; negative
same,mutagenic call,"Test System: AMES SALMONELLA TYPHIMURIUM, Strain/Indicator: TA1537, Metabolic Activation: RAT, LIVER, S-9, PHENOBARBITAL, Method: PREINCUBATION",inactive; negative
same,mutagenic call,"Test System: E. COLI, Strain/Indicator: WP2 UVRA, Metabolic Activation: NONE, Method: PREINCUBATION",inactive; negative
same,mutagenic call,"Test System: E. COLI, Strain/Indicator: WP2 UVRA, Metabolic Activation: RAT, LIVER, S-9, PHENOBARBITAL, Method: PREINCUBATION",inactive; negative
O=C(Cl)c1ccccc1,mutagenic call,"Test System: AMES SALMONELLA TYPHIMURIUM, Strain/Indicator: TA98, Metabolic Activation: NONE, Method: 0-1000 UG/PLATE",active; positive
same,mutagenic call,"Test System: AMES SALMONELLA TYPHIMURIUM, Strain/Indicator: TA98, Metabolic Activation: RAT LIVER S-9, PCB, Method: PREINCUBATION",active; positive
same,mutagenic call,[2],active; positive
same,mutagenic call,[4],active; positive
same,mutagenic call,"Test System: AMES SALMONELLA TYPHIMURIUM, Strain/Indicator: TA100, Metabolic Activation: RAT LIVER S-9, PCB, Method: PREINCUBATION",active; positive
same,mutagenic call,"Test System: AMES SALMONELLA TYPHIMURIUM, Strain/Indicator: TA104, Metabolic Activation: NONE, Method: PREINCUBATION",active; positive
same,mutagenic call,"Test System: AMES SALMONELLA TYPHIMURIUM, Strain/Indicator: TA104, Metabolic Activation: RAT LIVER S-9, PCB, Method: PREINCUBATION",active; positive
same,mutagenic call,"Test System: E.COLI, Strain/Indicator: WP2 UVRA, Metabolic Activation: NONE, Method: PREINCUBATION",active; positive
same,mutagenic call,"Test System: E.COLI, Strain/Indicator: WP2 UVRA, Metabolic Activation: RAT LIVER S-9, PCB, Method: PREINCUBATION",active; positive
O=[N+]([O-])c1ccc2cccc3c2c1CC3,mutagenic call,[5],active; positive
C/C=C/C=C/C,mutagenic call,[1],inactive; negative
same,mutagenic call,"Test System: AMES SALMONELLA TYPHIMURIUM, Strain/Indicator: TA98, Metabolic Activation: S-9, Method: PREINCUBATION",inactive; negative
same,mutagenic call,[2],inactive; negative
same,mutagenic call,"Test System: AMES SALMONELLA TYPHIMURIUM, Strain/Indicator: TA100, Metabolic Activation: S-9, Method: PREINCUBATION",inactive; negative
same,mutagenic call,[3],inactive; negative
same,mutagenic call,"Test System: AMES SALMONELLA TYPHIMURIUM, Strain/Indicator: TA1535, Metabolic Activation: S-9, Method: PREINCUBATION",inactive; negative
same,mutagenic call,"Test System: E.COLI, Strain/Indicator: WP2UVRA/PKM101, Metabolic Activation: NONE, Method: PREINCUBATION",inactive; negative
same,mutagenic call,"Test System: E.COLI, Strain/Indicator: WP2UVRA/PKM101, Metabolic Activation: S-9, Method: PREINCUBATION",inactive; negative
Cc1c(N=[N+]([O-])c2cccc([N+](=O)[O-])c2C)cccc1[N+](=O)[O-],mutagenic call,[1],inactive; negative
same,mutagenic call,"Test System: AMES SALMONELLA TYPHIMURIUM, Strain/Indicator: TA98, Metabolic Activation: RAT, LIVER, S-9, PHENOBARBITAL AND 5,6-BENZOFLAVONE, Method: PREINCUBATION",inactive; negative
same,mutagenic call,[2],inactive; negative
same,mutagenic call,"Test System: AMES SALMONELLA TYPHIMURIUM, Strain/Indicator: TA100, Metabolic Activation: RAT, LIVER, S-9, PHENOBARBITAL AND 5,6-BENZOFLAVONE, Method: PREINCUBATION",inactive; negative
COc1cc2c(cc1OC)CN(N=O)CC2,mutagenic call,"Test System: AMES SALMONELLA TYPHIMURIUM, Strain/Indicator: TA98, Metabolic Activation: RAT, LIVER, S-9, AROCLOR 1254, Method: PREINCUBATION",active; positive
same,mutagenic call,"Test System: AMES SALMONELLA TYPHIMURIUM, Strain/Indicator: TA100, Metabolic Activation: RAT, LIVER, S-9, AROCLOR 1254, Method: PREINCUBATION",active; positive
same,mutagenic call,"Test System: AMES SALMONELLA TYPHIMURIUM, Strain/Indicator: TA1535, Metabolic Activation: RAT, LIVER, S-9, AROCLOR 1254, Method: PREINCUBATION",active; positive
same,mutagenic call,"Test System: AMES SALMONELLA TYPHIMURIUM, Strain/Indicator: TA1537, Metabolic Activation: RAT, LIVER, S-9, AROCLOR 1254, Method: PREINCUBATION",active; positive
same,mutagenic call,"Test System: AMES SALMONELLA TYPHIMURIUM, Strain/Indicator: TA1538, Metabolic Activation: RAT, LIVER, S-9, AROCLOR 1254, Method: PREINCUBATION",active; positive
CCCCC[C@@](C)(O)/C=C/[C@H]1[C@H](O)CC(=O)[C@@H]1C/C=C\CCCC(=O)O,mutagenic call,[5],inactive; negative
same,mutagenic call,"Test System: AMES SALMONELLA TYPHIMURIUM, Strain/Indicator: TA98, Metabolic Activation: S-9, Method: STANDARD PLATE",inactive; negative
same,mutagenic call,[4],inactive; negative
same,mutagenic call,"Test System: AMES SALMONELLA TYPHIMURIUM, Strain/Indicator: TA100, Metabolic Activation: S-9, Method: STANDARD PLATE",inactive; negative
same,mutagenic call,"Test System: AMES SALMONELLA TYPHIMURIUM, Strain/Indicator: TA1535, Metabolic Activation: NONE, Method: STANDARD PLATE",inactive; negative
same,mutagenic call,"Test System: AMES SALMONELLA TYPHIMURIUM, Strain/Indicator: TA1535, Metabolic Activation: S-9, Method: STANDARD PLATE",inactive; negative
same,mutagenic call,"Test System: AMES SALMONELLA TYPHIMURIUM, Strain/Indicator: TA1537, Metabolic Activation: NONE, Method: STANDARD PLATE",inactive; negative
same,mutagenic call,"Test System: AMES SALMONELLA TYPHIMURIUM, Strain/Indicator: TA1537, Metabolic Activation: S-9, Method: STANDARD PLATE",inactive; negative
same,mutagenic call,"Test System: AMES SALMONELLA TYPHIMURIUM, Strain/Indicator: TA1538, Metabolic Activation: NONE, Method: STANDARD PLATE",inactive; negative
same,mutagenic call,"Test System: AMES SALMONELLA TYPHIMURIUM, Strain/Indicator: TA1538, Metabolic Activation: S-9, Method: STANDARD PLATE",inactive; negative
same,mutagenic call,"Test System: E. COLI, Strain/Indicator: WP2 UVRA, Metabolic Activation: NONE, Method: STANDARD PLATE",inactive; negative
same,mutagenic call,"Test System: E. COLI, Strain/Indicator: WP2 UVRA, Metabolic Activation: S-9, Method: STANDARD PLATE",inactive; negative
Cc1cc(O)ccc1N,mutagenic call,"Test System: MOUSE LYMPHOMA, Strain/Indicator: L5178Y (TK+/TK-), Metabolic Activation: NONE, Method: SUSPENSION/PLATE",active; positive. reevaluation of results: equivocal
same,mutagenic call,"Test System: MOUSE LYMPHOMA, Strain/Indicator: L5178Y (TK+/TK-), Metabolic Activation: RAT, LIVER, S-9, AROCLOR 1254, Method: SUSPENSION/PLATE",inactive; negative. reevaluation of results: inconclusive
